Measurements: patent US11840686B2, “Modulation of prekallikrein (PKK) expression” (Ionis Pharmaceuticals, Inc., priority 2013, dated 2023)
pIC50: −log10 of the molar value. Strand notation (5' to 3'): a small letter for the sugar, then the base; units joined by * are phosphorothioate-linked, units joined directly phosphodiester-linked; [ ] holds rarer units or linkages, { } end groups; capitals alone tell only the bases. e = 2'-O-(2-methoxyethyl) (MOE); [5mC] = 5-methylcytosine; d = 2'-deoxy (DNA)

How the values were obtained:
Format in all cases: cell-based
[1] = test system: human PKK mRNA; test: Antisense inhibition of human PKK mRNA in HepaRG cells, 1,000 nM, MOE/deoxy/cEt oligonucleotides (Example 3)
In short: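 Readout is percent PKK mRNA reduction against untreated controls, by real-time PCR (RTS3454) adjusted for total RNA via RIBOGREEN. Oligonucleotides, phosphorothioate gapmers of 16 nucleosides with cEt, MOE and deoxy sugars, were delivered at 1,000 nM by electroporation to 20,000 HepaRG cells/well for roughly 24 h.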

[2] = test system: human PKK mRNA; test: Antisense inhibition of human PKK mRNA in HepaRG cells, 3,000 nM (Example 1); conditions: Table 4; HepaRG cells, electroporation with 3,000 nM antisense oligonucleotide, approx. 24 hours; PKK mRNA by RT-PCR (RTS3454), relative to untreated control cells
In short: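 Values give percent PKK mRNA reduction relative to untreated controls, normalised to RIBOGREEN total RNA. mRNA was quantified by real-time PCR (RTS3454) about 24 h after electroporation. Each 20-mer MOE gapmer was delivered at 3,000 nM into 20,000 HepaRG cells per well.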

[3] = test system: mouse PKK mRNA; test: Antisense inhibition of murine PKK mRNA in mouse primary hepatocytes (Example 9); conditions: Cytofectin; for % inhibition of mouse PKK mRNA levels: approx. 24 hours
Experimental: Antisense oligonucleotides targeting a murine PKK nucleic acid were designed and tested for their effects on PKK mRNA in vitro. Cultured mouse primary hepatocytes at a density of 10,000 cells per well were transfected using Cytofectin reagent with 12.5 nM, 25.0 nM, 50.0 nM, 100.0 nM, and 200.0 nM of antisense oligonucleotide. After a treatment period of approximately 24 hours, RNA was isolated from the cells and mouse PKK mRNA levels were measured by quantitative real-time PCR using the murine primer probe set RTS3313 (forward sequence […], designated herein as SEQ ID NO: 2228; reverse sequence […], designated herein as SEQ ID NO: 2229; probe sequence […], designated herein as SEQ ID NO: 2230). PKK mRNA levels were adjusted according to total RNA content, as measured by RIBOGREEN.
The chimeric antisense oligonucleotides were designed as 5-10-5 MOE gapmers. The gapmers are 20 nucleotides in length, wherein the central gap segment is comprised of ten 2′-deoxynucleosides and is flanked on both sides (in the 5′ and 3′ directions) by wings comprising 5 nucleosides each. Each nucleoside in the 5′ wing segment and each nucleoside in the 3′ wing segment has a 2′-O-methoxyethyl modification. The internucleoside linkages throughout each gapmer are phosphorothioate linkages. All cytosine residues throughout each gapmer are 5-methylcytosines.
ISIS 482584 is targeted to SEQ ID NO: 11 (GENBANK Accession No. NM_008455.2) and has a target start site of 1586 and a target stop site of 1605. “Target start site” indicates the 5′-most nucleotide to which the gapmer is targeted. “Target stop site” indicates the 3′-most nucleotide to which the gapmer is targeted.

## 531231 (eT*eA*eT*e[5mC]*eA*d[5mC]*dT*dG*dT*dA*d[5mC]*dT*dA*dG*dT*eT*eT*e[5mC]*e[5mC]*eT) [compound 531231]
[1]; HepaRG cells, 1,000 nM antisense oligonucleotide, Table 29
  % inhibition: 46%
[1]; HepaRG cells, electroporation with 1,000 nM antisense oligonucleotide, approx. 24 hours, PKK mRNA by RT-PCR (RTS3454), relative to untreated control cells, Table 25 experiment
  % inhibition: 19%
[1]; HepaRG cells, electroporation with 1,000 nM antisense oligonucleotide, approx. 24 hours, PKK mRNA by RT-PCR (RTS3454), relative to untreated control cells, Table 26 experiment
  % inhibition: 42%
[1]; HepaRG cells, electroporation with 1,000 nM antisense oligonucleotide, approximately 24 hours, primer probe set RTS3454, relative to untreated control cells, experiment of Table 23
  % inhibition: 16%
[1]; HepaRG cells, electroporation with 1,000 nM antisense oligonucleotide, approximately 24 hours, primer probe set RTS3454, relative to untreated control cells, experiment of Table 24
  % inhibition: 0%
[1]; PKK mRNA, HepaRG cells, 1,000 nM antisense oligonucleotide, Table 31
  % inhibition: 48%
[1]; Table 21 experiment, HepaRG cells, electroporation with 1,000 nM antisense oligonucleotide, approx. 24 hours, PKK mRNA by RT-PCR (RTS3454), relative to untreated control cells
  % inhibition: 62%
[1]; Table 22 experiment, HepaRG cells, electroporation with 1,000 nM antisense oligonucleotide, approx. 24 hours, PKK mRNA by RT-PCR (RTS3454), relative to untreated control cells
  % inhibition: 75%
[1]; Table 27, HepaRG cells, 1,000 nM antisense oligonucleotide, human PKK mRNA
  % inhibition: 72%
[1]; Table 28, HepaRG cells, 1,000 nM antisense oligonucleotide, human PKK mRNA
  % inhibition: 46%
[1]; Table 30, human PKK mRNA, HepaRG cells, 1,000 nM antisense oligonucleotide
  % inhibition: 46%
[2]
  % inhibition: 94%

## ISIS 482584: 5-10-5 MOE gapmer targeting murine PKK, GGCATATTGGTTTTTGGAAT; SEQ ID NO: 2244 (antisense eG*eG*e[5mC]*eA*eT*dA*dT*dT*dG*dG*dT*dT*dT*dT*dT*eG*eG*eA*eA*eT)
[3]; 12.5 nM
  % inhibition of mouse PKK mRNA levels: 0%
[3]; 25.0 nM
  % inhibition of mouse PKK mRNA levels: 47%
[3]; 50.0 nM
  % inhibition of mouse PKK mRNA levels: 27%
[3]; 100.0 nM
  % inhibition of mouse PKK mRNA levels: 60%
[3]; 200.0 nM
  % inhibition of mouse PKK mRNA levels: 82%
[3]; 12.5-200.0 nM, ~24 h, read-out: half maximal inhibitory concentration (IC50)
  pIC50: 7.08
